The results in this text go back to ChEMBL document CHEMBL1201862, “PubChem BioAssay data set” (2004).

Holding throughout (assay type): functional
The target of experiment [1] is T1, Apoptotic protease-activating factor 1 (Homo sapiens, UniProt O14727).
T1 sequence (O14727 whole entry): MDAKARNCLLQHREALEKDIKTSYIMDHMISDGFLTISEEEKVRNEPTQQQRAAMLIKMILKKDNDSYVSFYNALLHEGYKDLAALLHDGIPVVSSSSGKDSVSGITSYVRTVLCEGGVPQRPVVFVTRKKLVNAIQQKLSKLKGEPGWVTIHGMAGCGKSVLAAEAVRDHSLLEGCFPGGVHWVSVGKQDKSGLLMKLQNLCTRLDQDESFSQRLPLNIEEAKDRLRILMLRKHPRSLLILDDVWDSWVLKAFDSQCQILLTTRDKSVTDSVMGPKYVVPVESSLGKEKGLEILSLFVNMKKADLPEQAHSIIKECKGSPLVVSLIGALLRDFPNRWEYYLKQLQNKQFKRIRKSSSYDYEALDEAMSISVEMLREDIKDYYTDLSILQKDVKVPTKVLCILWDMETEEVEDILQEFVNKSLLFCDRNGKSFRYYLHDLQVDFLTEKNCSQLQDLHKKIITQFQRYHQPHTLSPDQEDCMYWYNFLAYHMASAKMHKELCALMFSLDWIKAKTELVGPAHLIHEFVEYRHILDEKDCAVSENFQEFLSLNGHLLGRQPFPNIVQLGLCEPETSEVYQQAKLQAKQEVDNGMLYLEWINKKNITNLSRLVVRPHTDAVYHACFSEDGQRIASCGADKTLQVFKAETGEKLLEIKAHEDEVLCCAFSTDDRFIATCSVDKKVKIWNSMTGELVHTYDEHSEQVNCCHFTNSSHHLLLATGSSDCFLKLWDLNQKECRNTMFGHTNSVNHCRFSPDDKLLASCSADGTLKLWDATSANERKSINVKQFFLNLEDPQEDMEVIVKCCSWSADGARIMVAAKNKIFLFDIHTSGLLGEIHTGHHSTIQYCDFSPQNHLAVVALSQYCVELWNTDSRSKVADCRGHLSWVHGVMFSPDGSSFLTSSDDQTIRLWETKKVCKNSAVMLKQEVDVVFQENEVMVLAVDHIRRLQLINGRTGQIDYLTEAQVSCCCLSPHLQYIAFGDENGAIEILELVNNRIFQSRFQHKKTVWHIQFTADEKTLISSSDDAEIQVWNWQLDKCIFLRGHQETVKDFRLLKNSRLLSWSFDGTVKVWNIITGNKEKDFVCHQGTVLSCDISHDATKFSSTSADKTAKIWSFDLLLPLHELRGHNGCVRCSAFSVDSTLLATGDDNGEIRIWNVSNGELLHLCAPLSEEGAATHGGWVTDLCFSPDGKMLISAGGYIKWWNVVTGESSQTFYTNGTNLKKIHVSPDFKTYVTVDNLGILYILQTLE
Nature of the experiment: SAR analysis of small molecule inhibitors of Apaf-1 in a Fluorescent assay. The conditions noted are these: read-out: IC50_Mean.

Experiment [2] concerns the target ALK tyrosine kinase receptor (Homo sapiens, UniProt Q9UM73).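 Also: ALK tested as one member of a kinase panel screen.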
Experiment [3] deals with Tyrosine-protein kinase BTK (Homo sapiens, UniProt Q06187).
Sequence of Tyrosine-protein kinase BTK (Q06187 whole entry): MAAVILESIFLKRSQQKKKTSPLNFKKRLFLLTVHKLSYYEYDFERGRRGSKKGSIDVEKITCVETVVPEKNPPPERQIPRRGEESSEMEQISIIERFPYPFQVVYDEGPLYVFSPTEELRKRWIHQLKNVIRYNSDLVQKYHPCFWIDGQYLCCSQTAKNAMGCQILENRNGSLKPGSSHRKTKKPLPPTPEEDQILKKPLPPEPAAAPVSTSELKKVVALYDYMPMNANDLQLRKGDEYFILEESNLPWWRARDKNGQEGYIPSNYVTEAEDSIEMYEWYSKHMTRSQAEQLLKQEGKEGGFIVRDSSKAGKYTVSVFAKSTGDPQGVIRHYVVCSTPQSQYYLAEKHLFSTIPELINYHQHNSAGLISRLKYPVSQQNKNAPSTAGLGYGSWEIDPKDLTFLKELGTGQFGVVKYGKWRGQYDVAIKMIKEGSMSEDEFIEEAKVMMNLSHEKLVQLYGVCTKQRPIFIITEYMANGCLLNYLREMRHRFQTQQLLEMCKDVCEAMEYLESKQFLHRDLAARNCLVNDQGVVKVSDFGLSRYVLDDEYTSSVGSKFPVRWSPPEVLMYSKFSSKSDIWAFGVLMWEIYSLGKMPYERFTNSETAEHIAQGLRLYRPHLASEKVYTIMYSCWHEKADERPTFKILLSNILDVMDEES
A further experiment has as its target Focal adhesion kinase 1 (Homo sapiens, UniProt Q05397).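 Also: measured as one member of a kinome panel.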
Experiment [4] deals with T2, Serine/threonine-protein kinase TAO1 (Homo sapiens, UniProt Q7L7X3).
T2 sequence (Q7L7X3 whole entry): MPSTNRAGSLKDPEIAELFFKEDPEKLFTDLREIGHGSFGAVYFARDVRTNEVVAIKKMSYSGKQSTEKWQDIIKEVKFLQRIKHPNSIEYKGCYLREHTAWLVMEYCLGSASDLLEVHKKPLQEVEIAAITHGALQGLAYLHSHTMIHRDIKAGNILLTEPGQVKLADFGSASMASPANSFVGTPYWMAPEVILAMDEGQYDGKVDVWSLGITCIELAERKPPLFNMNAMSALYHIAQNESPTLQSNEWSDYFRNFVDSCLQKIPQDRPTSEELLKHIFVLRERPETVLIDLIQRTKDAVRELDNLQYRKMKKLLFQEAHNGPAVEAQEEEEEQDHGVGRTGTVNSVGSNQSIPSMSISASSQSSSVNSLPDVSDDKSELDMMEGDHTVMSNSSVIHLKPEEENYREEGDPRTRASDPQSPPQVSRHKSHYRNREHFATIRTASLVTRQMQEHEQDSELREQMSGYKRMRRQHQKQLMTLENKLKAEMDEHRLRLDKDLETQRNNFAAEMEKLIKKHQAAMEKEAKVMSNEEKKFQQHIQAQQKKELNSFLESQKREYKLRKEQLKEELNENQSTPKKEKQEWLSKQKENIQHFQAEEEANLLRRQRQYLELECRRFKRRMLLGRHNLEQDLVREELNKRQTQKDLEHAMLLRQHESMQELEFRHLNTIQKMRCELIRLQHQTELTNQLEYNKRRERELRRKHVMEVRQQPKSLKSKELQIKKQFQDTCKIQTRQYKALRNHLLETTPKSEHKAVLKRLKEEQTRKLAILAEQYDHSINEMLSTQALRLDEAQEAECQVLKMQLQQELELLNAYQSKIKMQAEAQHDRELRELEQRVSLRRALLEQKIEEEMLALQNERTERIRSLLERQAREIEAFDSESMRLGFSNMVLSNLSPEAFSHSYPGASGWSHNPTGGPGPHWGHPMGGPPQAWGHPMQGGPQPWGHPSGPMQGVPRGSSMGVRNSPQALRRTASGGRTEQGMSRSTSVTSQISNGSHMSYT

Experiment [5] has as its target Mitogen-activated protein kinase 14 (Homo sapiens, UniProt Q16539).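 Also: part of a kinome-wide panel, MAPK14 entry.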
Experiment [6] concerns the target Calcium/calmodulin-dependent protein kinase type II subunit alpha (Homo sapiens, UniProt Q9UQM7). As to the kind of experiment: Navigating the Kinome. Panel member name: CAMK2A.
Experiment [7] concerns the target Tyrosine-protein kinase Lck (Homo sapiens, UniProt P06239).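 Also: lck was assayed as one member of a kinase panel.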
For experiment [8], the target named is Tyrosine-protein kinase Fyn (Homo sapiens, UniProt P06241).
Sequence of Tyrosine-protein kinase Fyn (P06241 whole entry): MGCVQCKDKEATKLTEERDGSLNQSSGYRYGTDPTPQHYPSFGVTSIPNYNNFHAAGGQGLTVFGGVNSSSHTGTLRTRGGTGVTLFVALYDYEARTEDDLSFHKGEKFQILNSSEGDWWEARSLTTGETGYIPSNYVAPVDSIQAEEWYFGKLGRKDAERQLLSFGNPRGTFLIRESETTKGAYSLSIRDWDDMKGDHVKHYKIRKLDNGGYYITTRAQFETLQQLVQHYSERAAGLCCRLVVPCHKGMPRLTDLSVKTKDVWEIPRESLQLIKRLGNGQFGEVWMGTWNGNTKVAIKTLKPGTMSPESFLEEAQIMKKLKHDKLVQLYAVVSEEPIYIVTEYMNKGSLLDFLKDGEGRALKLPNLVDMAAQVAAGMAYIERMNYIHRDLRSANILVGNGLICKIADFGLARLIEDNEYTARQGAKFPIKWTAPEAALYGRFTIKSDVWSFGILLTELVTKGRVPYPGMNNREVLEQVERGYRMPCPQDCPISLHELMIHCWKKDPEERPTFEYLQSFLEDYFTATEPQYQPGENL

Activity calls are given as the source filed them.

Sequence of Mitogen-activated protein kinase 14 (Q16539 whole entry): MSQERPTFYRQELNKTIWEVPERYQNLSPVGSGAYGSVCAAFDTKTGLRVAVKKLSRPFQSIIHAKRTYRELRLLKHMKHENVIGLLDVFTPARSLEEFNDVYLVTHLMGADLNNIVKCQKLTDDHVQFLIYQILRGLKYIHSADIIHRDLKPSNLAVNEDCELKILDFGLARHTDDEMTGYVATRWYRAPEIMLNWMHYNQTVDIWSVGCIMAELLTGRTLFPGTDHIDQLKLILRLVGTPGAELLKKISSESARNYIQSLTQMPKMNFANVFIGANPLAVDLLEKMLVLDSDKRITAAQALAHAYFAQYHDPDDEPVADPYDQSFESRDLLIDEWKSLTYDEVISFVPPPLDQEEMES
Sequence of Focal adhesion kinase 1 (Q05397 whole entry): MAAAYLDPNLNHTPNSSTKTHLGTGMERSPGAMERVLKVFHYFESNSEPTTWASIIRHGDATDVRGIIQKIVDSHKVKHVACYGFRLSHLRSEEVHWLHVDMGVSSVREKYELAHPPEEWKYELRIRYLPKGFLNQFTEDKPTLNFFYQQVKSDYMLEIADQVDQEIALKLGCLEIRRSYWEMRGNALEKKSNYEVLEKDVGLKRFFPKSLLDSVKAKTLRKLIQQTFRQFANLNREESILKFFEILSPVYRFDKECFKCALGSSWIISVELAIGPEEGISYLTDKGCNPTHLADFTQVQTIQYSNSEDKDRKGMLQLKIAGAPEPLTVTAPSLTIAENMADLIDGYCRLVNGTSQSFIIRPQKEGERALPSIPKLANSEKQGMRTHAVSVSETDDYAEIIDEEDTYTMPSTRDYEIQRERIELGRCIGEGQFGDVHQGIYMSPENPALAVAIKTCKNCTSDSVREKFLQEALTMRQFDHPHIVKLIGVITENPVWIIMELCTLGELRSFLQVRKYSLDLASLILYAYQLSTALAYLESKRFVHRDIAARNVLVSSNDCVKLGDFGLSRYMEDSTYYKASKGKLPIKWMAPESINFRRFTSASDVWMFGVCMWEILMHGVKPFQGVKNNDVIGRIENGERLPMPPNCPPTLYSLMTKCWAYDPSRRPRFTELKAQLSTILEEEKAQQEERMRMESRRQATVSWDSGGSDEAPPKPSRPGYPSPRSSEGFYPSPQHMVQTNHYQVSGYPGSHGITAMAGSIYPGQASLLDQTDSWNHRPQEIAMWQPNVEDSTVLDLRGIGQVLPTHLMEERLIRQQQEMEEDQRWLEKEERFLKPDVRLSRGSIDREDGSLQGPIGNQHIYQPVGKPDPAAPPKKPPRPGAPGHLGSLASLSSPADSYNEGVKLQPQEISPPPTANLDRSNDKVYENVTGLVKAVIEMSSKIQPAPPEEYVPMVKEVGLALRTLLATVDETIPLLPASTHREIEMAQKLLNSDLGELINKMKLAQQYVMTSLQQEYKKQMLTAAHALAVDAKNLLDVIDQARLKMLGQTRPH
Sequence of ALK tyrosine kinase receptor (Q9UM73 whole entry): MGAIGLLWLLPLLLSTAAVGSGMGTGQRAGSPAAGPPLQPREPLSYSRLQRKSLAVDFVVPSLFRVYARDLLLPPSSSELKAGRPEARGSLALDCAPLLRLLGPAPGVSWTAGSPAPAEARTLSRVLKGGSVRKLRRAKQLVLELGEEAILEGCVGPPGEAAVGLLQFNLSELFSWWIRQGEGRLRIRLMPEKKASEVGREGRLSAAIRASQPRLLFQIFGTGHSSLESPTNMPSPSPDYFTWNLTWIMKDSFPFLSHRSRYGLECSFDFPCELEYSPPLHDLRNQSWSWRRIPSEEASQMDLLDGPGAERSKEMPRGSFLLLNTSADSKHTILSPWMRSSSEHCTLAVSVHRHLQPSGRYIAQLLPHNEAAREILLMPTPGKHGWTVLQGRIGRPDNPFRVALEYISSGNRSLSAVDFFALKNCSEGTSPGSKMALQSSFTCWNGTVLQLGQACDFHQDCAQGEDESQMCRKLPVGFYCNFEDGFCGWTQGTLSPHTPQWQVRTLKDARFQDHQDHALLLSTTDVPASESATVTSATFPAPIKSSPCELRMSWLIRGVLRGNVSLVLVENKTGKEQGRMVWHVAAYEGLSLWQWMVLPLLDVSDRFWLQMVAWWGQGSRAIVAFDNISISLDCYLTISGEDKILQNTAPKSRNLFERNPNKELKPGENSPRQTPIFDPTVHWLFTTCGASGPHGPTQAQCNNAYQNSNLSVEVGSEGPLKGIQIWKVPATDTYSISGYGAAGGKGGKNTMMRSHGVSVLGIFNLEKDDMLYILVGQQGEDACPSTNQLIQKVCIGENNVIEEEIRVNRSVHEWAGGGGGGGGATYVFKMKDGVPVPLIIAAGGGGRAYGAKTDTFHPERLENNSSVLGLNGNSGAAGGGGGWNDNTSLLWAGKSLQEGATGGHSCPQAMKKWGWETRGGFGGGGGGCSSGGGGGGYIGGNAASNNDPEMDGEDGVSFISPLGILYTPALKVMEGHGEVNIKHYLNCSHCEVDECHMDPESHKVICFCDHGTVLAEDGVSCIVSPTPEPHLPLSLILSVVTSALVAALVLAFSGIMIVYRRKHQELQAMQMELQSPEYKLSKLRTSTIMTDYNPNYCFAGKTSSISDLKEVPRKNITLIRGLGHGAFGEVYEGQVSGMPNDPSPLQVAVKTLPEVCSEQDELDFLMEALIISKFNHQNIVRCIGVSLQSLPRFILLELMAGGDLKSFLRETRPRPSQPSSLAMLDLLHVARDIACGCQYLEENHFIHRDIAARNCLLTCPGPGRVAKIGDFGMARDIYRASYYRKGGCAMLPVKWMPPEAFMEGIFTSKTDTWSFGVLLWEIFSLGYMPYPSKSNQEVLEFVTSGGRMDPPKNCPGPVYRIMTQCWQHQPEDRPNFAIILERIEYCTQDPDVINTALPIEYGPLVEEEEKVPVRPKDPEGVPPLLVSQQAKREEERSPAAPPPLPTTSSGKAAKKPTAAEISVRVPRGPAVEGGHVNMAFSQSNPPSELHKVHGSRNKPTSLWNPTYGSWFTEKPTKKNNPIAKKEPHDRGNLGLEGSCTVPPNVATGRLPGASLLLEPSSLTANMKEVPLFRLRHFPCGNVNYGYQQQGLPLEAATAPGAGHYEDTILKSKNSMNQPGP
Sequence of Calcium/calmodulin-dependent protein kinase type II subunit alpha (Q9UQM7 whole entry): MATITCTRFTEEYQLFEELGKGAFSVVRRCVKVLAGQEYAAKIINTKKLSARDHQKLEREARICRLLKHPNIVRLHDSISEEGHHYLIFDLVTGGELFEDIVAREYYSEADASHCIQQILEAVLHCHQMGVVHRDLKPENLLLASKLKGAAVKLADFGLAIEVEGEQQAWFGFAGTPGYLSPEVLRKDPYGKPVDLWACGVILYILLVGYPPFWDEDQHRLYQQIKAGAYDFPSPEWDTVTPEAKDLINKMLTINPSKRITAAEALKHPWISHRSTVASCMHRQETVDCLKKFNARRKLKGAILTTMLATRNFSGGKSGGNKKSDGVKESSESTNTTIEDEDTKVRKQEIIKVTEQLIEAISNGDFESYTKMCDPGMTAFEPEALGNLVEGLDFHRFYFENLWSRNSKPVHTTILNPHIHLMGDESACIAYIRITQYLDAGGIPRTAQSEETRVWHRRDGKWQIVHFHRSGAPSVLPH

Regarding `Cn1cc(C(CC(=O)c2ccc(C3CCCCC3)cc2)C(=O)O)c2ccccc21` (centres undefined), the IC50 in experiment [1] is 69.6 µM (active).

The Ki is the equilibrium dissociation constant of an inhibitor or competing ligand from its target. `CC(C)CC(CO)NC(=O)c1cccc(-n2nc(C(C)(C)C)cc2NC(=O)Nc2cccc3ccccc23)c1` (centres undefined): the Ki in experiment [2] is > 6.31 µM (inactive); in [3], > 6.31 µM (inactive); on Focal adhesion kinase 1 it was > 6.31 µM (inactive); in experiment [4], > 6.31 µM (inactive); in experiment [5] it was 0.631 µM (active); in experiment [6] it was > 7.94 µM (inactive). Moreover, the Ki in experiment [7] and in experiment [8] was > 6.31 µM (inactive) each time.
